Experimental data reported in patent US20120065226A1, “SALTS OF […] 10-CAMPH[…]” (ADAMED SP Z O.O., priority 2009, published 2012).
Where a name gives a salt, the structure may show the parent alone.

Experiments:
[1] = Hygroscopicity of the crystals; type: physicochemical
[2] = Recrystallization from various organic solvents, crystalline form by XRPD; type: physicochemical; conditions: XRPD analysis
Description: The process for the preparation of novel tiotropium salts with 10-camphorsulphonic acid and with single optical isomers thereof as well as monohydrates of the salts according to the present invention allows to obtain the desired product as stable, non-hygroscopic crystals, with high yield and with purity acceptable for being used in pharmaceutical compositions. Stability of crystalline anhydrous tiotropium salts with 1R-(−)-10-camphorsulphonic and 1S-(+)-10-camphorsulphonic acids was confirmed experimentally. […] Therefore, no transformation or modification of a crystalline salt takes place.
XRPD patterns were obtained using Rigaku MiniFlex X-ray diffractometer, with Cu Kα radiation, filter Kβ. Lamps parameters were set at 30 kV and 15 mA. Divergence and scattering slits were set at 4.2°, and a receiving slit was set at 0.3 mm. Deflection of rays was detected with scintillation detector NaI. The θ/2θ continuous scan at 1°/min with a step of 0.02° from 2.0 to 40° 2θ was used. The samples were prepared by pressing the solid in a quartz holder.

Row | SMILES | hygroscopicity [1] | crystalline form after recrystallization [2]
1 | CC1(C)C2CC[C@@]1(CS(=O)(=O)[O-])C(=O)C2.C[N+]1(C)C2CC(OC(=O)C(O)(c3cccs3)c3cccs3)CC1C1OC12.O (stereo not drawn) [Crystalline monohydrate of tiotropium salt with 1S-(+)-10-camphorsulphonic acid] | non-hygroscopic | 
2 | C[N+]1(C)C2CC(OC(=O)C(O)(c3cccs3)c3cccs3)CC1C1OC12 (stereo not drawn) [Tiotropium salt with 1R-(−)-10-camphorsul-phonic acid, anhyd] [Tiotropium salt with 1R-(−)-10-camphorsulphonic acid (anhydrous)] |  | initial crystalline form
3 | CC1(C)C2CC[C@]1(CS(=O)(=O)[O-])C(=O)C2.C[N+]1(C)C2CC(OC(=O)C(O)(c3cccs3)c3cccs3)CC1C1OC12.O (stereo not drawn) [Crystalline monohydrate of tiotropium salt with 1R-(−)-10-camphorsulphonic acid] | non-hygroscopic | 
4 | C[N+]1(C)C2CC(OC(=O)C(O)(c3cccs3)c3cccs3)CC1C1OC12 (stereo not drawn) [Tiotropium salt with 1S-(+)-10-camphorsul-phonic acid, anhyd] [Tiotropium salt with 1S-(+)-10-camphorsulphonic acid (anhydrous)] |  | initial crystalline form
